Results reported in patent US7160888B2, “[1,8]naphthyridin-2-ones and related compounds for the treatment of schizophrenia” (Warner Lambert Company LLC, priority 2003, dated 2007).
Blank lines part the entries; values can stand above or below the compound they belong to.

Target: D2 receptor (Homo sapiens, UniProt P14416)
Experiment: [3H]Thymidine uptake assay for D2 intrinsic activity
Format: cell-based
Details: test compound 1 μM, 1 μM Quinpirole = 100% intrinsic activity

Chain of D2 receptor (P14416 whole entry): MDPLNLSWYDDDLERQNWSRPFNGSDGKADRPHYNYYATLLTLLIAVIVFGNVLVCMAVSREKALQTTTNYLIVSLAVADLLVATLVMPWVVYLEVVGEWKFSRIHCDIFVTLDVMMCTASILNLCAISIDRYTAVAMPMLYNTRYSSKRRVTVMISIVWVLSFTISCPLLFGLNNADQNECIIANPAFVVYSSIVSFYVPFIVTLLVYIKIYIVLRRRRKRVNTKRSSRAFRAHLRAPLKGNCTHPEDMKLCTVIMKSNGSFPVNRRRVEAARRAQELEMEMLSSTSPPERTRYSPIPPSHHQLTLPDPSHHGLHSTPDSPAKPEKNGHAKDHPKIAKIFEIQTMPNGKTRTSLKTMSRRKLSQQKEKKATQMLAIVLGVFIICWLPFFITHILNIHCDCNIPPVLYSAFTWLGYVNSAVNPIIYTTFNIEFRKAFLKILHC

Structure (SMILES): O=C1CCc2c(C(F)(F)F)cc(OCCCCN3CCN(c4cccc5ccccc45)CC3)nc2N1 [Example E14, 7-[4-(4-Naphthalen-1-yl-piperazin-1-yl)-butoxy]-5-trifluoromethyl-3,4-dihydro-1H-[1,8]naphthyridin-2-one]
Emax at 1 µM (Table 1): 36%

Structure (SMILES): O=C1CCc2c(C(F)(F)F)cc(OCCCCN3CCN(c4cccc5c4CCCC5)CC3)nc2N1 [Example E15, 7-{4-[4-(5,6,7,8-Tetrahydro-naphthalen-1-yl)-piperazin-1-yl]-butoxy}-5-trifluoromethyl-3,4-dihydro-1H-[1,8]naphthyridin-2-one]
Emax at 1 µM (Table 1): 20%

Structure (SMILES): O=C1NCc2ccc(OCCCCN3CCN(c4cccc5c4CCC5)CC3)nc2N1 [Example F3, 7-[4-(4-Indan-4-yl-piperazin-1-yl)-butoxy]-3,4-dihydro-1H-pyrido[2,3-d]pyrimidin-2-one]
Emax at 1 µM (Table 1): 15%

Structure (SMILES): O=C1NCc2ccc(OCCCCN3CCN(c4cccc5c4CCCC5)CC3)nc2N1 [Example F4, 7-{4-[4-(5,6,7,8-Tetrahydro-naphthalen-1-yl)-piperazin-1-yl]-butoxy}-3,4-dihydro-1H-pyrido[2,3-d]pyrimidin-2-one]
Emax at 1 µM (Table 1): 23%

Structure (SMILES): O=C1NCc2ccc(OCCCCN3CCN(c4cccc5ccc(F)cc45)CC3)nc2N1 [Example F5, 7-{4-[4-(7-Fluoro-naphthalen-1-yl)-piperazin-1-yl]-butoxy}-3,4-dihydro-1H-pyrido[2,3-d]pyrimidin-2-one]
Emax at 1 µM (Table 1): 32%

Emax at 1 µM (Table 1): 37%
Structure (SMILES): N#Cc1ccc2cccc(N3CCN(CCCCOc4ccc5c(n4)NC(=O)NC5)CC3)c2c1 [Example F6, 8-{4-[4-(2-Oxo-1,2,3,4-tetrahydro-pyrido[2,3-d]pyrimidin-7-yloxy)-butyl]-piperazin-1-yl}-naphthalene-2-carbonitrile]

Structure (SMILES): CN1Cc2ccc(OCCCCN3CCN(c4cccc(Cl)c4Cl)CC3)nc2NC1=O [Example F7, 7-{4-[4-(2,3-Dichloro-phenyl)-piperazin-1-yl]-butoxy}-3-methyl-3,4-dihydro-1H-pyrido[2,3-d]pyrimidin-2-one]
Emax at 1 µM (Table 1): 11%

Structure (SMILES): CN1Cc2ccc(OCCCCN3CCN(c4cccc5ccccc45)CC3)nc2NC1=O [Example F8, 3-Methyl-7-[4-(4-naphthalen-1-yl-piperazin-1-yl)-butoxy]-3,4-dihydro-1H-pyrido[2,3-d]pyrimidin-2-one]
Emax at 1 µM (Table 1): 15%

Emax at 1 µM (Table 1): 11%
Structure (SMILES): CC1(C)OC(=O)Nc2nc(CCCCCN3CCN(c4cccc(Cl)c4Cl)CC3)ccc21 [Example F9, 7-{5-[4-(2,3-Dichloro-phenyl)-piperazin-1-yl]-pentyl}-4,4-dimethyl-1,4-dihydro-pyrido[2,3-d][1,3]oxazin-2-one]

Emax at 1 µM (Table 1): 27%
Structure (SMILES): O=C1COc2ccc(CCCCCN3CCN(c4cccc(Cl)c4Cl)CC3)nc2N1 [Example G1, 6-{5-[4-(2,3-Dichloro-phenyl)-piperazin-1-yl]-pentyl}-4H-pyrido[3,2-b][1,4]oxazin-3-one]

Structure (SMILES): O=c1ccc2cnc(OCCCCN3CCN(c4cccc5c4OCCO5)CC3)nc2[nH]1 [Example G1′, 2-{4-[4-(2,3-Dihydro-benzo[1,4]dioxin-5-yl)-piperazin-1-yl]-butoxy}-8H-pyrido[2,3-d]pyrimidin-7-one]
Emax at 1 µM (Table 2): 20%

Emax at 1 µM (Table 1): 6%
Structure (SMILES): O=C1COc2ccc(CCCCCN3CCN(c4cccc5c4CCCC5)CC3)nc2N1 [Example G2, 6-{5-[4-(5,6,7,8-Tetrahydro-naphthalen-1-yl)-piperazin-1-yl]-pentyl}-4H-pyrido[3,2-b][1,4]oxazin-3-one]

Structure (SMILES): O=c1ccc2cnc(OCCCCN3CCN(c4cccc5c4OCCC5)CC3)nc2[nH]1 [Example G2′, 2-[4-(4-Chroman-8-yl-piperazin-1-yl)-butoxy]-8H-pyrido[2,3-d]pyrimidin-7-one]
Emax at 1 µM (Table 2): 21%

Structure (SMILES): O=C1COc2ccc(OCCCCN3CCN(c4cccc(Cl)c4Cl)CC3)nc2N1 [Example G3, 6-{4-[4-(2,3-Dichloro-phenyl)-piperazin-1-yl]-butoxy}-4H-pyrido[3,2-b][1,4]oxazin-3-one]
Emax at 1 µM (Table 1): 25%

Structure (SMILES): O=c1ccc2cnc(OCCCCN3CCN(c4cccc5cccnc45)CC3)nc2[nH]1 [Example G3′, 2-[4-(4-Quinolin-8-yl-piperazin-1-yl)-butoxy]-8H-pyrido[2,3-d]pyrimidin-7-one]
Emax at 1 µM (Table 2): 28%

Structure (SMILES): O=c1ccc2cnc(OCCCCN3CCN(c4cccc5c4OCC5)CC3)nc2[nH]1 [Example G4′, 2-{4-[4-(2,3-Dihydro-benzofuran-7-yl)-piperazin-1-yl]-butoxy}-8H-pyrido[2,3-d]pyrimidin-7-one]
Emax at 1 µM (Table 2): 13%

Structure (SMILES): O=c1ccc2cnc(OCCCCN3CCN(c4cccc5c4OCCCO5)CC3)nc2[nH]1 [Example G5′, 2-{4-[4-(3,4-Dihydro-2H-benzo[b][1,4]dioxepin-6-yl)-piperazin-1-yl]-butoxy}-8H-pyrido[2,3-d]pyrimidin-7-one]
Emax at 1 µM (Table 2): 7%

Structure (SMILES): CC1(C)CCc2cccc(N3CCN(CCCCOc4ncc5ccc(=O)[nH]c5n4)CC3)c2O1 [Example G6′, 2-{4-[4-(2,2-Dimethyl-chroman-8-yl)-piperazin-1-yl]-butoxy}-8H-pyrido[2,3-d]pyrimidin-7-one]
Emax at 1 µM (Table 2): 17%

Structure (SMILES): O=c1ccc2cnc(OCCCCN3CCN(c4cccc5c4OC(F)(F)O5)CC3)nc2[nH]1 [Example G7′, 2-{4-[4-(2,2-Difluoro-benzo[1,3]dioxol-4-yl)-piperazin-1-yl]-butoxy}-8H-pyrido[2,3-d]pyrimidin-7-one]
Emax at 1 µM (Table 2): 38%

Structure (SMILES): CC1(C)Cc2cccc(N3CCN(CCCCOc4ncc5ccc(=O)[nH]c5n4)CC3)c2O1 [Example G8′, 2-{4-[4-(2,2-Dimethyl-2,3-dihydro-benzofuran-7-yl)-piperazin-1-yl]-butoxy}-8H-pyrido[2,3-d]pyrimidin-7-one]
Emax at 1 µM (Table 2): 32%

Structure (SMILES): Cc1ccc2cccc(N3CCN(CCCCOc4ncc5ccc(=O)[nH]c5n4)CC3)c2n1 [Example G9′, 2-{4-[4-(2-Methyl-quinolin-8-yl)-piperazin-1-yl]-butoxy}-8H-pyrido[2,3-d]pyrimidin-7-one]
Emax at 1 µM (Table 2): 21%

Structure (SMILES): Cc1nc(OCCCCN2CCN(c3cccc4c3OCCO4)CC2)nc2[nH]c(=O)ccc12 [Example G10′, 2-{4-[4-(2,3-Dihydro-benzo[1,4]dioxin-5-yl)-piperazin-1-yl]-butoxy}-4-methyl-8H-pyrido[2,3-d]pyrimidin-7-one]
Emax at 1 µM (Table 2): 18%

Structure (SMILES): Cc1nc(OCCCCN2CCN(c3cccc4c3OCC4)CC2)nc2[nH]c(=O)ccc12 [Example G11′, 2-{4-[4-(2,3-Dihydro-benzofuran-7-yl)-piperazin-1-yl]-butoxy}-4-methyl-8H-pyrido[2,3-d]pyrimidin-7-one]
Emax at 1 µM (Table 2): 39%

Structure (SMILES): Cc1nc(OCCCCN2CCN(c3cccc4ccoc34)CC2)nc2[nH]c(=O)ccc12 [Example G12′, 2-[4-(4-Benzofuran-7-yl-piperazin-1-yl)-butoxy]-4-methyl-8H-pyrido[2,3-d]pyrimidin-7-one]
Emax at 1 µM (Table 2): 36%

Structure (SMILES): Cc1nc(OCCCCN2CCN(c3cccc4c3NC(=O)CC4)CC2)nc2[nH]c(=O)ccc12 [Example G14′, 4-Methyl-2-{4-[4-(2-oxo-1,2,3,4-tetrahydro-quinolin-8-yl)-piperazin-1-yl]-butoxy}-8H-pyrido[2,3-d]pyrimidin-7-one]
Emax at 1 µM (Table 2): 44%

Structure (SMILES): Cc1nc(OCCCCN2CCN(c3cccc4cccnc34)CC2)nc2[nH]c(=O)ccc12 [Example G15′, 4-Methyl-2-[4-(4-quinolin-8-yl-piperazin-1-yl)-butoxy]-8H-pyrido[2,3-d]pyrimidin-7-one]
Emax at 1 µM (Table 2): 41%

Structure (SMILES): O=C1CCc2cnc(OCCCCN3CCN(c4cccc5c4OCCC5)CC3)cc2N1 [Example H1′, 7-[4-(4-Chroman-8-yl-piperazin-1-yl)-butoxy]-3,4-dihydro-1H-[1,6]naphthyridin-2-one]
Emax at 1 µM (Table 2): 22%

Structure (SMILES): CC(C)Oc1ccccc1N1CCN(CCCCOc2ncc3ccc(=O)[nH]c3n2)CC1 [Example H2, 2-{4-[4-(2-Isopropoxy-phenyl)-piperazin-1-yl]-butoxy}-8H-pyrido[2,3-d]pyrimidin-7-one]
Emax at 1 µM (Table 1): 22%

Structure (SMILES): O=C1CCc2cnc(OCCCCN3CCN(c4cccc5c4OCC5)CC3)cc2N1 [Example H2′, 7-{4-[4-(2,3-Dihydro-benzofuran-7-yl)-piperazin-1-yl]-butoxy}-3,4-dihydro-1H-[1,6]naphthyridin-2-one]
Emax at 1 µM (Table 2): 15%

Structure (SMILES): O=c1ccc2cnc(OCCCCN3CCN(c4cccc5c4CCC5)CC3)nc2[nH]1 [Example H3, 2-[4-(4-Indan-4-yl-piperazin-1-yl)-butoxy]-8H-pyrido[2,3-d]pyrimidin-7-one]
Emax at 1 µM (Table 1): 25%

Structure (SMILES): O=C1CCc2cnc(OCCCCN3CCN(c4cccc5c4OC(F)(F)C(F)(F)O5)CC3)cc2N1 [Example H3′, 7-{4-[4-(2,2,3,3-Tetrafluoro-2,3-dihydro-benzo[1,4]dioxin-5-yl)-piperazin-1-yl]-butoxy}-3,4-dihydro-1H-[1,6]naphthyridin-2-one]
Emax at 1 µM (Table 2): 22%

Structure (SMILES): O=c1ccc2cnc(OCCCCN3CCN(c4cccc5ccccc45)CC3)nc2[nH]1 [Example H4, 2-[4-(4-Naphthalen-1-yl-piperazin-1-yl)-butoxy]-8H-pyrido[2,3-d]pyrimidin-7-one]
Emax at 1 µM (Table 1): 38%

Structure (SMILES): O=C1CCc2cnc(OCCCCN3CCN(c4cccc5c4OC(F)(F)O5)CC3)cc2N1 [Example H4′, 7-{4-[4-(2,2-Difluoro-benzo[1,3]dioxol-4-yl)-piperazin-1-yl]-butoxy}-3,4-dihydro-1H-[1,6]naphthyridin-2-one]
Emax at 1 µM (Table 2): 21%

Structure (SMILES): Cc1nc(OCCCCN2CCN(c3cccc4ccccc34)CC2)nc2[nH]c(=O)c(F)cc12 [Example H5, 6-Fluoro-4-methyl-2-[4-(4-naphthalen-1-yl-piperazin-1-yl)-butoxy]-8H-pyrido[2,3-d]pyrimidin-7-one]
Emax at 1 µM (Table 1): 34%

Structure (SMILES): O=C1CCc2cnc(OCCCCN3CCN(c4cccc5c4OCCO5)CC3)cc2N1 [Example H5′, 7-{4-[4-(2,3-Dihydro-benzo[1,4]dioxin-5-yl)-piperazin-1-yl]-butoxy}-3,4-dihydro-1H-[1,6]naphthyridin-2-one]
Emax at 1 µM (Table 2): 14%

Structure (SMILES): Cc1nc(OCCCCN2CCN(c3cccc(C(C)C)n3)CC2)nc2[nH]c(=O)ccc12 [Example H6, 2-{4-[4-(6-Isopropyl-pyridin-2-yl)-piperazin-1-yl]-butoxy}-4-methyl-8H-pyrido[2,3-d]pyrimidin-7-one]
Emax at 1 µM (Table 1): 42%

Structure (SMILES): O=c1ccc2cnc(OCCCCN3CCN(c4cccc5c4OCC5)CC3)cc2[nH]1 [Example H6′, 7-{4-[4-(2,3-Dihydro-benzofuran-7-yl)-piperazin-1-yl]-butoxy}-1H-[1,6]naphthyridin-2-one]
Emax at 1 µM (Table 2): 21%
